The target of the assay is T1, ΔF508-CFTR (Homo sapiens, UniProt P13569, DEL508-508).
T1 construct: expressed in transfected cells
Put plainly: Membrane potential optical (FRET/VIPR) assay, identification of correction compounds. The class given is cell-based. As to conditions: Table 3, assay not given; for Emax: read-out: % Activity / % Efficacy (relative efficacy). An excerpt:
I) Membrane Potential Optical Methods for Assaying ΔF508-CFTR Modulation Properties of Compounds
These voltage sensitive assays are based on the change in fluorescence resonant energy transfer (FRET) between the membrane-soluble, voltage-sensitive dye, DiSBAC2(3), and a fluorescent phospholipid, CC2-DMPE, which is attached to the outer leaflet of the plasma membrane and acts as a FRET donor. Changes in membrane potential (Vm) cause the negatively charged DiSBAC2(3) to redistribute across the plasma membrane and the amount of energy transfer from CC2-DMPE changes accordingly. The changes in fluorescence emission were monitored using VIPR™ II, which is an integrated liquid handler and fluorescent detector designed to conduct cell-based screens in 96- or 384-well microtiter plates.
Identification of Correction Compounds
To identify small molecules that correct the trafficking defect associated with ΔF508-CFTR; a single-addition HTS assay format was developed. The cells were incubated in serum-free medium for 16 hrs at 37° C. in the presence or absence (negative control) of test compound. As a positive control, cells plated in 384-well plates were incubated for 16 hrs at 27° C. to “temperature-correct” ΔF508-CFTR. The cells were subsequently rinsed 3× with Krebs Ringers solution and loaded with the voltage-sensitive dyes. To activate ΔF508-CFTR, 10 μM forskolin and the CFTR potentiator, genistein (20 μM), were added along with Cl^− free medium to each well. The addition of Cl^− free medium promoted Cl^− efflux in response to ΔF508-CFTR activation and the resulting membrane depolarization was optically monitored using the FRET-based voltage-sensor dyes.
• Bath Solution #1: (in mM) NaCl 160, KCl 4.5, CaCl2 2, MgCl2 1, HEPES 10, pH 7.4 with NaOH. • Chloride-free bath solution: Chloride salts in Bath Solution #1 are substituted with gluconate salts. • CC2-DMPE: Prepared as a 10 mM stock solution in DMSO and stored at −20° C. • DiSBAC2(3): Prepared as a 10 mM stock in DMSO and stored at −20° C.
NIH3T3 mouse fibroblasts stably expressing ΔF508-CFTR are used for optical measurements of membrane potential. The cells are maintained at 37° C. in 5% CO2 and 90% humidity in Dulbecco's modified Eagle's medium supplemented with 2 mM glutamine, 10% fetal bovine serum, 1×NEAA, β-ME, 1×pen/strep, and 25 mM HEPES in 175 cm^2 culture flasks. For all optical assays, the cells were seeded at 30,000/well in 384-well matrigel-coated plates and cultured for 2 hrs at 37° C. before culturing at 27° C. for 24 hrs. for the potentiator assay.

For orientation: pEC50 means the negative decadic logarithm of the EC50, by convention in mol/L.

pEC50: −log10 of the molar value.

T1 sequence (P13569 with tags, fused parts or gaps DEL508-508): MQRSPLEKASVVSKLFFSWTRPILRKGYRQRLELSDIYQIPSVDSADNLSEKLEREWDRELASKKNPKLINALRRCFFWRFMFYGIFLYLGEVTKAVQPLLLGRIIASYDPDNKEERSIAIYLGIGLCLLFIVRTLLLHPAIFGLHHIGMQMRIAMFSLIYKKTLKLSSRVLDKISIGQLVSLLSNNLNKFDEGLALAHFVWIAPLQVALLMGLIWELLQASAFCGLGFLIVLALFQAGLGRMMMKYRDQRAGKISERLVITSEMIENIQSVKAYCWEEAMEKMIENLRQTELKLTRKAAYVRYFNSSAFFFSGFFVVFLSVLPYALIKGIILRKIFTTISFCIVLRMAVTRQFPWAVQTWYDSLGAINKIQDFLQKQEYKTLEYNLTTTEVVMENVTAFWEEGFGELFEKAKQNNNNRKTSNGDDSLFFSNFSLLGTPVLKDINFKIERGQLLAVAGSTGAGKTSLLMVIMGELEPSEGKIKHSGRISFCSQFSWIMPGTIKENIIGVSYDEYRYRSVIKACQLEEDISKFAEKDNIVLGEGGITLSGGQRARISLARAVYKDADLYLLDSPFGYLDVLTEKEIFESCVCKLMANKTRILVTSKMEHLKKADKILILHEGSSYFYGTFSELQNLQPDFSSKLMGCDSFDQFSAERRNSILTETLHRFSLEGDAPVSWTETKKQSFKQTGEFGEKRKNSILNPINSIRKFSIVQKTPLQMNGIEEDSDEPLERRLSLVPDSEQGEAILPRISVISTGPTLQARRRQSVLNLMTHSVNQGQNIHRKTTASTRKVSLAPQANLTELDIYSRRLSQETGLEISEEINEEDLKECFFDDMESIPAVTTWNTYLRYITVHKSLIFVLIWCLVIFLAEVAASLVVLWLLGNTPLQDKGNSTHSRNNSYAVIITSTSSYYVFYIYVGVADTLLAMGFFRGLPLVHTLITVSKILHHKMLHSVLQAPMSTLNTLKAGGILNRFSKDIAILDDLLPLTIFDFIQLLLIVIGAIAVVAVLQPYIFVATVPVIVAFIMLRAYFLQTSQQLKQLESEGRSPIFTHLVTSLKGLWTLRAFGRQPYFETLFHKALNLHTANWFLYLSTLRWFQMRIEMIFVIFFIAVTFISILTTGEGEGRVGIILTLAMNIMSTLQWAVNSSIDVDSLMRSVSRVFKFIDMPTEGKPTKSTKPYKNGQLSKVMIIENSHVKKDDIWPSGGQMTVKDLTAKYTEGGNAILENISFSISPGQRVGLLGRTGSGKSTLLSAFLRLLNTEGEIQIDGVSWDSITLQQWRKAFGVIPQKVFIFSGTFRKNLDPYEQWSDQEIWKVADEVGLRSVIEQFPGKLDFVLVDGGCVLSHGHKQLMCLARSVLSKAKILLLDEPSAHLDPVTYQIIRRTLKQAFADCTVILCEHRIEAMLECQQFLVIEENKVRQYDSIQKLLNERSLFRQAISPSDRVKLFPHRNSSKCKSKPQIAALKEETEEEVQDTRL

Regarding `COc1ccc(C2(C(=O)Nc3ncc(Cc4ccc(Cl)cc4)s3)CC2)cc1` [Example 13], the pEC50 is greater than 5.00 and the Emax was greater than 100%.

In the case of `COc1ccc(C2(C(=O)Nc3nc(-c4ccccc4)cs3)CC2)cc1` [Example 17], the pEC50 is greater than 5.00 and the Emax was greater than 100%.

For `O=C(Nc1ncc(Cc2ccccc2Cl)s1)C1(c2ccc(F)cc2)CCCC1` [Example 26], the negative logarithm of the EC50 (pEC50) is greater than 5.00 and the Emax was greater than 100%.

For `COc1ccccc1Cc1cnc(NC(=O)C2(c3ccc(Cl)cc3)CC2)s1` [Example 32], the pEC50 was greater than 5.00 and the Emax is greater than 100%.

Consider `COc1ccc(C2(C(=O)Nc3ncc(Sc4ccccc4Cl)s3)CC2)cc1` [Example 36], for which the pEC50 is greater than 5.00 and the Emax fell in the range of 25 to 100%.

Consider `COc1ccc(C2(C(=O)Nc3ncc(Sc4cccc(Cl)c4)s3)CC2)cc1` [Example 37], for which the pEC50 was greater than 5.00 and the Emax is greater than 100%.

Regarding `COc1ccc(C2(C(=O)Nc3ncc(C(=O)c4ccccc4Cl)s3)CC2)cc1` [Example 44], the pEC50 is greater than 5.00 and the Emax was greater than 100%.

As for `COc1ccc(C2(C(=O)Nc3nc4ccc(Cl)cc4s3)CC2)cc1` [Example 47], the pEC50 is greater than 5.00 and the Emax lay in the range of 25 to 100%.

Regarding `COc1ccc(C2(C(=O)Nc3ncc(Cc4ccccc4Cl)s3)CC2)cc1OC` [Example 55], the “% Activity / % Efficacy (relative efficacy)” value was “+++ (“+++” means>100%)” and the pEC50 was greater than 5.00.

As for `O=C(Nc1ncc(Cc2ccccc2Cl)s1)C1(c2ccc3c(c2)OCO3)CC1` [Example 56], the “% Activity / % Efficacy (relative efficacy)” value is reported as “++ (“++” means between 25% to 100%)” and the pEC50 is greater than 5.00.

For `COc1ccc(C2(C(=O)Nc3ncc(Cc4ccccc4OC)s3)CCOCC2)cc1` [Example 57], the “% Activity / % Efficacy (relative efficacy)” value is listed as “+++ (“+++” means>100%)” and the pEC50 is greater than 5.00.

For the compound `COc1ccccc1Cc1cnc(NC(=O)C2(c3ccc(OC)c(OC)c3)CC2)s1` [Example 58], the “% Activity / % Efficacy (relative efficacy)” value is reported as “+++ (“+++” means>100%)” and the pEC50 was greater than 5.00.

For the compound `COc1ccc(C2(C(=O)Nc3ncc(Cc4ccccc4C#N)s3)CC2)cc1OC` [Example 61], the “% Activity / % Efficacy (relative efficacy)” value was “+++ (“+++” means>100%)” and the negative-log EC50 (pEC50) was greater than 5.00.

Consider `N#Cc1ccccc1Cc1cnc(NC(=O)C2(c3ccc4c(c3)OCO4)CC2)s1` [Example 62], for which the “% Activity / % Efficacy (relative efficacy)” value was “++ (“++” means between 25% to 100%)” and the pEC50 was 4.60 to 5.00.

As to `COc1ccc(C2(C(=O)Nc3ncc(Cc4ccccc4Cl)n3C)CC2)cc1` [Example 63], the “% Activity / % Efficacy (relative efficacy)” value is “+++ (“+++” means>100%)” and the pEC50 was greater than 5.00.

Turning to `COc1ccc(C2(C(=O)Nc3ncc(C)s3)CC2)cc1` [Example 64], the “% Activity / % Efficacy (relative efficacy)” value is on record as “+++ (“+++” means>100%)” and the pEC50 was greater than 5.00.

As for `COc1ccccc1C1(C(=O)Nc2ncc(Cc3ccccc3Cl)s2)CC1` [Example 65], the pEC50 was greater than 5.00 and the Emax is greater than 100%.

Take `COc1cccc(C2(C(=O)Nc3ncc(Cc4ccccc4Cl)s3)CC2)c1` [Example 66]: the “% Activity / % Efficacy (relative efficacy)” value is listed as “+++ (“+++” means>100%)” and the pEC50 is greater than 5.00.

Take `COc1cccc(C2(C(=O)Nc3ncc(Cc4ccccc4OC)s3)CC2)c1` [Example 67]: the “% Activity / % Efficacy (relative efficacy)” value was “++ (“++” means between 25% to 100%)” and the pEC50 was 4.22 to 4.60.

Turning to `COc1ccccc1C1(C(=O)Nc2ncc(Cc3ccccc3C#N)s2)CC1` [Example 68], the negative-log EC50 (pEC50) was greater than 5.00 and the Emax was 25 to 100%.

For the compound `COc1cccc(C2(C(=O)Nc3ncc(Cc4ccccc4C#N)s3)CC2)c1` [Example 69], the “% Activity / % Efficacy (relative efficacy)” value is given as “+++ (“+++” means>100%)” and the pEC50 was greater than 5.00.

Turning to `COc1ccccc1Cc1cnc(NC(=O)C2(c3ccccc3OC)CC2)s1` [Example 70], the “% Activity / % Efficacy (relative efficacy)” value is given as “++ (“++” means between 25% to 100%)” and the pEC50 is greater than 5.00.

For `COC(=O)Cn1cc(Cc2ccccc2Cl)sc1=NC(=O)C1(c2ccc(OC)cc2)CC1` [Example 72], the “% Activity / % Efficacy (relative efficacy)” value is given as “++ (“++” means between 25% to 100%)” and the pEC50 is 4.22 to 4.60.

Consider `CCN(CC)CCn1cc(Cc2ccccc2Cl)s/c1=N/C(=O)C1(c2ccc(OC)cc2)CC1` [Example 73], for which the negative logarithm of the EC50 (pEC50) was 4.22 to 4.60 and the Emax is less than 25%.

Turning to `CCN(CC)CCn1cc(Cc2ccccc2Cl)s/c1=N/C(=O)C1(c2ccc(OC)cc2)CC1` [Example 74], the “% Activity / % Efficacy (relative efficacy)” value was “++ (“++” means between 25% to 100%)” and the pEC50 is 4.22 to 4.60.

For the compound `CCN(CC)CCN(C(=O)C1(c2ccc(OC)cc2)CC1)c1ncc(Cc2ccccc2Cl)s1` [Example 75], the “% Activity / % Efficacy (relative efficacy)” value is “++ (“++” means between 25% to 100%)” and the negative logarithm of the EC50 (pEC50) is 4.22 to 4.60.

In the case of `COc1ccc(C2(C(=O)Nc3ncc(Cc4ccccc4C(N)=O)s3)CC2)cc1` [Example 76], the “% Activity / % Efficacy (relative efficacy)” value was “+++ (“+++” means>100%)” and the pEC50 is greater than 5.00.

Take `COc1ccc(C2(C(=O)Nc3nc(-c4ccc(C)cc4)cs3)CC2)cc1` [Example 77]: the “% Activity / % Efficacy (relative efficacy)” value is recorded as “+++ (“+++” means>100%)” and the pEC50 was greater than 5.00.

On to `COc1ccc(C2(C(=O)Nc3nc(-c4ccc(Cl)cc4)cs3)CC2)cc1` [Example 78], for which the “% Activity / % Efficacy (relative efficacy)” value is listed as “+++ (“+++” means>100%)” and the pEC50 was greater than 5.00.

Turning to `COc1ccc(-c2csc(NC(=O)C3(c4ccc(OC)cc4)CC3)n2)cc1` [Example 79], the “% Activity / % Efficacy (relative efficacy)” value is reported as “+++ (“+++” means>100%)” and the pEC50 is greater than 5.00.

For `O=C(Nc1nc(-c2ccccc2)cs1)C1(c2ccc3c(c2)OCO3)CC1` [Example 80], the “% Activity / % Efficacy (relative efficacy)” value is on record as “+++ (“+++” means>100%)” and the pEC50 was greater than 5.00.

Regarding `O=C(Nc1nc(-c2ccccc2Cl)cs1)C1(c2ccc3c(c2)OCO3)CC1` [Example 81], the “% Activity / % Efficacy (relative efficacy)” value is “+++ (“+++” means>100%)” and the negative-log EC50 (pEC50) is greater than 5.00.

For `Cc1ccc(-c2csc(NC(=O)C3(c4ccc5c(c4)OCO5)CC3)n2)cc1` [Example 82], the “% Activity / % Efficacy (relative efficacy)” value is “+++ (“+++” means>100%)” and the pEC50 was greater than 5.00.

For `Cc1cnc(NC(=O)C2(c3ccc4c(c3)OCO4)CC2)s1` [Example 85], the “% Activity / % Efficacy (relative efficacy)” value was “+++ (“+++” means>100%)” and the pEC50 was greater than 5.00.

As for `O=C(Nc1ncc(-c2ccccc2)s1)C1(c2ccc3c(c2)OCO3)CC1` [Example 86], the “% Activity / % Efficacy (relative efficacy)” value is on record as “+++ (“+++” means>100%)” and the pEC50 was greater than 5.00.

`COc1ccc(C2(C(=O)Nc3ncc([S+]([O-])c4ccccc4OC)s3)CC2)cc1` (centres unmarked) [Example 87]: the “% Activity / % Efficacy (relative efficacy)” value is on record as “+++ (“+++” means>100%)” and the negative-log EC50 (pEC50) is greater than 5.00.

On to `COc1ccc(C2(C(=O)Nc3ncc(S(=O)(=O)c4ccccc4OC)s3)CC2)cc1` [Example 88], for which the “% Activity / % Efficacy (relative efficacy)” value is “+++ (“+++” means>100%)” and the pEC50 was greater than 5.00.

Regarding `COc1ccc(C2(C(=O)Nc3ncc(Cc4cccc(F)c4Cl)s3)CC2)cc1` [Example 89], the pEC50 was greater than 5.00 and the Emax was greater than 100%.

As to `COc1ccc(C2(C(=O)Nc3ncc(Cc4cc(F)ccc4Cl)s3)CC2)cc1` [Example 90], the “% Activity / % Efficacy (relative efficacy)” value was “++ (“++” means between 25% to 100%)” and the pEC50 is greater than 5.00.

Regarding `NC(=O)C1(C(=O)Nc2ncc(Cc3ccccc3Cl)s2)CC1` [Example 91], the “% Activity / % Efficacy (relative efficacy)” value was “++ (“++” means between 25% to 100%)” and the pEC50 is 4.60 to 5.00.

Consider `O=C(Nc1ncc(Oc2ccccc2Cl)s1)C1(c2ccc3c(c2)OCO3)CC1` [Example 93], for which the “% Activity / % Efficacy (relative efficacy)” value is reported as “+++ (“+++” means>100%)” and the pEC50 was greater than 5.00.

As to `COc1ccccc1Oc1cnc(NC(=O)C2(c3ccc4c(c3)OCO4)CC2)s1` [Example 94], the “% Activity / % Efficacy (relative efficacy)” value was “+++ (“+++” means>100%)” and the negative logarithm of the EC50 (pEC50) was greater than 5.00.

Regarding `COc1ccc(C2(C(=O)Nc3ncc(Sc4ccccc4N)s3)CC2)cc1` [Example 95], the negative logarithm of the EC50 (pEC50) was greater than 5.00 and the Emax is 25 to 100%.
